Assay results: patent publication US20220251085A1, “CYSTEINE BINDING COMPOSITIONS AND METHODS OF USE THEREOF” (University of Virginia Patent Foundation, priority 2019, published 2022)
Blank lines part the entries; values can stand above or below the compound they belong to.

Experiments:
[1] = HPLC assay for profiling solution reactivity and stability of purine adduct fragments; type: physicochemical; conditions: for preference between nucleophiles: butanethiol versus p-cresol
Method: HPLC assay for profiling solution reactivity and stability of purine adduct fragments: The following reagents were prepared and stored on ice prior to use. 0.1 M solution of caffeine in acetonitrile, 1.0 M solution of amino acid mimetic (butanethiol, n-butylamine, p-cresol, propionamide and butyric acid), tetramethylguanidine (TMG), 1 M HOAc in ACN and 10 mM solution of purine fragment (e.g., one of the purine adducts shown in Scheme 8, above) in ACN mixture. 500 μL of fragment solution (i.e. purified Pa-1 through Pa-6) were transferred to a dram vial on ice. To the mixture, 5.5 μL of TMG and 5.5 μL of respective amino acid mimetic were added and solutions were stirred on ice for 6 h. To monitor reactivity, 50 μL aliquots were removed at indicated time points and quenched with 10 μL of a 1:1 mixture of caffeine and HOAc. Samples were injected (1 μL) and analyzed by reverse-phase HPLC on a Shimadzu 1100 Series spectrometer with UV detection at 254 nm. Reaction progress was evaluated by monitoring consumption of starting material (purine fragment) normalized to caffeine standard. Chromatographic separation was performed using a Phenomenex Kinetex C18 column (2.6 μm, 50×4.6 mm). Mobile phases A and B were composed of H2O+0.1% HOAc and ACN+0.1% HOAc, respectively. […] All purine fragment peak AUCs used for calculations were normalized to caffeine standard AUCs at respective time points to account for run-to-run variations by HPLC. The amount of purine fragment consumed (% starting material) was plotted as a function of time.

[2] = biological target: T1, human eEF-Sec (Uniprot ID P57772) (Homo sapiens, UniProt P57772); assay: Competition assay: purine ligands block AHL-Pu-1 probe labeling of eEF-Sec; type: cell-based; conditions: for block of AHL-Pu-1 probe labeling of eEF-Sec (FIG. 10E) / block of AHL-Pu-1 probe labeling of eEF-Sec (FIG. 10D): ligand 4 hr, AHL-Pu-1 25 μM 1 hr; for block of AHL-Pu-1 probe labeling of eEF-Sec (FIG. 10E): 0.05 to 25 μM; for block of AHL-Pu-1 probe labeling of eEF-Sec (FIG. 10E) / block of AHL-Pu-1 probe labeling of eEF-Sec (FIG. 10D) / block of AHL-Pu-1 probe labeling of eEF-Sec: live cells; for block of AHL-Pu-1 probe labeling of eEF-Sec (FIG. 10D): 0.5 to 25 μM; for inhibition of eEF-Sec probe labeling: 10 μM ligand; for block of AHL-Pu-1 probe labeling of eEF-Sec: ligand 10 μM, AHL-Pu-1 25 μM
T1 construct: FLAG; expressed in transfected cells; host or cells: HEK293T
T1 sequence (P57772 1-596): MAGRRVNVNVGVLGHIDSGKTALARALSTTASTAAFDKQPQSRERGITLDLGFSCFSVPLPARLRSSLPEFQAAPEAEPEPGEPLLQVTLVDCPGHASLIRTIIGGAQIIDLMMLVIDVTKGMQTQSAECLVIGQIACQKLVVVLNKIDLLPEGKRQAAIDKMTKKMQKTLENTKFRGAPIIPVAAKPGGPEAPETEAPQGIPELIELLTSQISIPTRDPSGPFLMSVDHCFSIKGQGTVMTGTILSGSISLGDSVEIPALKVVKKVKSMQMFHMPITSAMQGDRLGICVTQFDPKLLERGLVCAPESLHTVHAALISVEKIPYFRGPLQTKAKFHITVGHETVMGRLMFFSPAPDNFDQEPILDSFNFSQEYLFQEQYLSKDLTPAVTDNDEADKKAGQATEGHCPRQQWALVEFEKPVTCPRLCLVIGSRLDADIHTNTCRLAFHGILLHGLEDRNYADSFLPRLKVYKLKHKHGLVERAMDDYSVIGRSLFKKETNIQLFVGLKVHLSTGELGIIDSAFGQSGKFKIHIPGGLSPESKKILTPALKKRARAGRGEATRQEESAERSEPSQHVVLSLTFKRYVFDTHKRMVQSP
Method: FIG. 8 is a schematic diagram showing the workflow of a fluorescent gel-based competition assay using an activity-based probe (ABP) of the presently disclosed subject matter and a competitive inhibitor.
Methods: HEK293T cells were grown at 37° C. in 5% CO2 until 40% confluent. Recombinant human eEF-Sec (Uniprot ID P57772) was expressed by transient transfection for 48 hours. […] Lysates were spun at 100,000×g for 45 minutes. […] Purine probe modified proteins were conjugated to rhodamine-azide by CuAAC, subjected to SDS-PAGE analysis, and detected by in-gel fluorescence scanning. Comparison of non-transfected (Mock) and transfected proteomes was used to identify the recombinant eEF-Sec purine probe-labeled band. […] Reduction in fluorescent signals from purine probe labeling was indicative of Pi ligand inhibitory activity. Mut represents eEF-Sec mutant where cysteine residue 442 is mutated to alanine (C442A).

[3] = HPLC assay for profiling solution reactivity and stability of purine fragments (probes) with amino acid mimetics; type: physicochemical; conditions: for effect of position of the halogen leaving group on reactivity: 6 position versus 2 position (Pu-3 versus Pu-5, Pu-4 versus Pu-6); for reaction kinetics compared to N9 counterparts / effect of amine group at the 2 position on electrophilic character / adducts formed, based on HPLC traces: butanethiol; for reaction kinetics compared to N9 counterparts: versus Pu-2, Pu-4, Pu-10; for reaction with butanethiol: cysteine mimetic, on ice 6 h
Method: HPLC assay for profiling solution reactivity and stability of purine fragments: The following reagents were prepared and stored on ice prior to use. 0.1 molar (M) solution of caffeine in acetonitrile, 1.0 M solution of amino acid mimetic (butanethiol—cysteine mimetic; n-butylamine—lysine mimetic; p-cresol—tyrosine mimetic; propionamide-asparagine/glutamine mimetic; butyric acid—aspartic/glutamic acid mimetic), tetramethylguanidine (TMG), 1 M acetic acid (HOAc) in acetonitrile (ACN) and 10 mM solution of purine fragment in ACN mixture. 500 μL of fragment solution were transferred to a dram vial on ice. To the mixture, 5.5 μL of TMG and 5.5 μL of respective amino acid mimetic were added and solutions were stirred on ice for 6 h. To monitor reactivity, 50 μL aliquots were removed at indicated time points and quenched with 10 μL of a 1:1 mixture of caffeine and HOAc. Samples were injected (1 μL) and analyzed by reverse-phase HPLC on a Shimadzu 1100 Series spectrometer (Shimadzu Corporation, Kyoto, Japan) with UV detection at 254 nm. Reaction progress was evaluated by monitoring consumption of starting material (purine fragment) normalized to caffeine standard. Chromatographic separation was performed using a Phenomenex Kinetex C18 column (2.6 μm, 50×4.6 mm; Phenomenex, Torrance, Calif., United States of America). Mobile phases A and B were composed of H2O+0.1% HOAc and ACN+0.1% HOAc, respectively. […] All purine fragment peak AUCs used for calculations were normalized to caffeine standard AUCs at respective time points to account for run-to-run variations by HPLC. The amount of purine fragment consumed (% starting material) was plotted as a function of time.
Discussion: An HPLC assay for determining the reactivity of the purine-based probes with mimetics of amino acid residues was performed. […] Reaction progress was monitored by monitoring the disappearance of starting material and appearance of product via HPLC.

DM93 cells = assay: Live cell activity of purine probes, gel-based (CuAAC rhodamine-azide, in-gel fluorescence); conditions: for reactivity of N7 versus N9 tautomers / probe labeling compared to Pu-5 and Pu-6: live DM93 cells; for probe labeling compared to Pu-5 and Pu-6: 6-chloro versus 2-chloro; for labeling profile in live cells: DM93 cells, 25 μM, 4 hours
Method: Live Cell Activity Method: DM93 cells were grown at 37° C. in 5% CO2 until 90% confluent. Once confluent cells were washed with serum free media and treated with halogenated purine probes at a final concentration of 25 μM (unless stated) for 4 hours (unless stated). Cells were then scraped and washed 3× with cold PBS and lysed in PBS+protease inhibitor. Lysates were spun at 100,000×g for 45 minutes. Halogen probe-modified proteins in soluble fractions were visualized by conjugating rhodamine-azide using copper-catalyzed azide-alkyne cycloaddition (CuAAC; 1 hour, room temperature), subjected to SDS-PAGE, and detected by in-gel fluorescence scanning. SDS-PAGE gels were also stained with Coomassie brilliant blue to determine protein load. All samples were loaded with equivalent amounts of protein. Thus, changes in purine probe labeling is not due to loading of different proteome amounts.

[4] = tested on: DM93 cells lysates (soluble fractions); assay: Lysate activity of purine probes, gel-based (in-gel fluorescence); type: biochemical; conditions: for reactivity of N7 versus N9 tautomers / labeling compared to AHL-Pu-5 and AHL-Pu-6: lysates; for labeling compared to AHL-Pu-5 and AHL-Pu-6: 6-chloro versus 2-chloro; for protein labeling activity in lysates: DM93 soluble fractions, 25 μM, 2 hrs, 37° C.
Method: Lysate Activity Method: DM93 cells were grown at 37° C. in 5% CO2 until 90% confluent. Once confluent, cells were scraped and washed 3× times with cold PBS and lysed in PBS+protease inhibitor. Lysates were spun at 100,000×g for 45 minutes. Soluble fractions were treated with 25 μM of halogenated purine probes (unless stated) for 2 hrs (unless stated) at 37° C. Purine probe modified proteins were conjugated to rhodamine-azide by CuAAC, subjected to SDS-PAGE analysis, and detected by in-gel fluorescence scanning. SDS-PAGE gels were stained with Coomassie brilliant blue to determine protein load.

reactivity with butanethiol or p-cresol ([1]; on ice 6 h): little reactivity
SMILES: C#CCn1cnc2nc(Cl)nc(SCCCC)c21 [Pa-1, 6-(Butylthio)-2-chloro-7-(prop-2-yn-1-yl)-7H-purine]

preference between nucleophiles [1]: preference for butanethiol | reactivity with nucleophiles ([1]; on ice 6 h): mild reactivity
SMILES: C#CCn1cnc2c(Cl)nc(SCCCC)nc21 [Pa-3, 2-(butylthio)-6-chloro-9-(prop-2-yn-1-yl)-9H-purine]

reactivity of 2-halogen, 6-substituted versus 6-halogen, 2-substituted ([1]; Pa-4 versus Pa-3, butanethiol): higher reactivity | reactivity with nucleophiles ([1]; on ice 6 h): mild reactivity
SMILES: C#CCn1cnc2c(SCCCC)nc(Cl)nc21 [Pa-4, 6-(butylthio)-2-chloro-9-(prop-2-yn-1-yl)-9H-purine]
reactivity against nucleophiles, N9 versus N7 tautomer ([1]; Pa-4 versus Pa-1, butanethiol): appears to be more reactive against nucleophiles

reactivity with nucleophiles ([1]; on ice 6 h): mild reactivity
SMILES: C#CCn1cnc2c(SCCCC)nc(F)nc21 [Pa-6, 6-(butylthio)-2-fluoro-9-(prop-2-yn-1-yl)-9H-purine]
preference between nucleophiles [1]: equivalent reactivity against butanethiol and p-cresol

block of AHL-Pu-1 probe labeling of eEF-Sec (FIG. 10E) [2]: in a concentration dependent manner | block of AHL-Pu-1 probe labeling of eEF-Sec (FIG. 10D) [2]: in a concentration dependent manner
SMILES: Clc1nc(Cl)c2c(ncn2Cc2ccccc2)n1 [Pi-1, 2,6-dichloro-7-benzyl-7H-purine]

inhibition of eEF-Sec probe labeling [2]: greater than 50% | block of AHL-Pu-1 probe labeling of eEF-Sec (FIG. 10E) [2]: in a concentration dependent manner | block of AHL-Pu-1 probe labeling of eEF-Sec (FIG. 10D) [2]: in a concentration dependent manner
SMILES: O=[N+]([O-])c1ccc(Cn2cnc3nc(Cl)nc(Cl)c32)cc1 [Pi-5, 2,6-Dichloro-7-(4-nitrobenzyl)-7H-purine]
block of AHL-Pu-1 probe labeling of eEF-Sec [2]: block AHL-Pu-1 probe labeling (25 μM) in a time dependent and concentration dependent manner

inhibition of eEF-Sec probe labeling [2]: loses all apparent activity
SMILES: O=[N+]([O-])c1ccc(Cn2cnc3c(Cl)nc(Cl)nc32)cc1 [Pi-6, 2,6-Dichloro-9-(4-nitrobenzyl)-9H-purine]

block of AHL-Pu-1 probe labeling of eEF-Sec (FIG. 10D) [2]: in a concentration dependent manner
SMILES: O=S(=O)(N1CCOCC1)n1cnc2c(Cl)nc(Cl)nc21 [Pi-8, 4-((2,6-Dichloro-9H-purin-9-yl)sulfonyl)morpholine]
block of AHL-Pu-1 probe labeling of eEF-Sec [2]: block AHL-Pu-1 probe labeling (25 μM) in a time dependent and concentration dependent manner

effect of position of the halogen leaving group on reactivity [3]: the 6 position enhances reactivity | reaction with butanethiol [3]: react with butanethiol
SMILES: C#CCn1cnc2ncnc(Cl)c21 [Pu-3, 6-Chloro-7-(prop-2-yn-1-yl)-7H-purine]
reaction kinetics compared to N9 counterparts [3]: accelerated reaction kinetics | reactivity of N7 versus N9 tautomers (DM93 cells): more reactive | probe labeling compared to Pu-5 and Pu-6 (DM93 cells): Enhanced probe labeling | reactivity of N7 versus N9 tautomers [4]: more reactive | labeling compared to AHL-Pu-5 and AHL-Pu-6 [4]: Increased labeling

effect of position of the halogen leaving group on reactivity [3]: the 6 position enhances reactivity
SMILES: C#CCn1cnc2c(Cl)ncnc21 [Pu-4, 6-Chloro-9-(prop-2-yn-1-yl)-9H-purine]
probe labeling compared to Pu-5 and Pu-6 (DM93 cells): Enhanced probe labeling | labeling compared to AHL-Pu-5 and AHL-Pu-6 [4]: Increased labeling

SMILES: C#CCn1cnc2nc(N)nc(Cl)c21 [Pu-7, 6-chloro-2-amino-7-(prop-2-yn-1-yl)-7H-purine]
effect of amine group at the 2 position on electrophilic character [3]: dramatically reduces the electrophilic character

SMILES: C#CCn1cnc2c(Cl)nc(N)nc21 [Pu-8, 2-Amino-6-chloro-9-(prop-2-yn-1-yl)-9H-purine]
effect of amine group at the 2 position on electrophilic character [3]: dramatically reduces the electrophilic character

adducts formed, based on HPLC traces [3]: likely form many different adducts | reaction with butanethiol [3]: react with butanethiol
SMILES: C#CCn1cnc2nc(F)nc(Cl)c21 [Pu-9, 6-chloro-2-fluoro-7-(prop-2-yn-1-yl)-7H-purine]
reaction kinetics compared to N9 counterparts [3]: accelerated reaction kinetics | labeling profile in live cells (DM93 cells): robust labeling profiles | reactivity of N7 versus N9 tautomers (DM93 cells): more reactive | protein labeling activity in lysates [4]: highest protein labeling activity | reactivity of N7 versus N9 tautomers [4]: more reactive

adducts formed, based on HPLC traces [3]: likely form many different adducts | reaction with butanethiol [3]: react with butanethiol
SMILES: C#CCn1cnc2c(Cl)nc(F)nc21 [Pu-10, 6-chloro-2-fluoro-9-(prop-2-yn-1-yl)-9H-purine]
labeling profile in live cells (DM93 cells): robust labeling profiles | protein labeling activity in lysates [4]: highest protein labeling activity
